Bounds are passed on as bounds.

The target of one experiment is FAK (Homo sapiens (Human), UniProt Q05397). Put plainly: Biochemical assay for FAK activity (LANCE TR-FRET, ULight-poly Glu,Ala,Tyr substrate). As to conditions: GST-tagged FAK, 120 min reaction. The procedure, abridged:
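GST-tagged FAK (2.5 nM working stock) with ULight-poly Glu,Ala,Tyr (666 nM stock) and ATP (33.3 μM stock) in Tris pH 7.5/MgCl2/DTT/CHAPS buffer with BSA, 120 min; EDTA-quenched. Phosphorylation read by TR-FRET with Eu-anti-phosphotyrosine (PY20) antibody after 60 min. Compounds tested as 12-point 3-fold dilutions.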
(In general: Time-resolved FRET reads energy transfer from a long-lived donor to a nearby acceptor.)

A further experiment deals with PYK2 (Homo sapiens (Human), UniProt Q14289). Kind of experiment: Biochemical assay for PYK2 activity (LANCE TR-FRET, ULight-poly Glu,Ala,Tyr substrate). As to conditions: GST-tagged PYK2, 40 min reaction. The procedure, abridged: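 GST-tagged human PYK2 (2 nM working stock) with ULight-poly Glu,Ala,Tyr (1:1:1) peptide (666 nM working stock) and ATP (46.6 μM working stock) in 40 mM Tris pH 7.5, MgCl2, 1 mM DTT, 1 mM CHAPS; 40 min reaction, EDTA quench. Phosphotyrosine read by LANCE Eu-anti-phosphotyrosine (PY20) TR-FRET after 60 min; 12-point 3-fold compound dilutions.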
PYK2, sequence (Q14289 whole entry): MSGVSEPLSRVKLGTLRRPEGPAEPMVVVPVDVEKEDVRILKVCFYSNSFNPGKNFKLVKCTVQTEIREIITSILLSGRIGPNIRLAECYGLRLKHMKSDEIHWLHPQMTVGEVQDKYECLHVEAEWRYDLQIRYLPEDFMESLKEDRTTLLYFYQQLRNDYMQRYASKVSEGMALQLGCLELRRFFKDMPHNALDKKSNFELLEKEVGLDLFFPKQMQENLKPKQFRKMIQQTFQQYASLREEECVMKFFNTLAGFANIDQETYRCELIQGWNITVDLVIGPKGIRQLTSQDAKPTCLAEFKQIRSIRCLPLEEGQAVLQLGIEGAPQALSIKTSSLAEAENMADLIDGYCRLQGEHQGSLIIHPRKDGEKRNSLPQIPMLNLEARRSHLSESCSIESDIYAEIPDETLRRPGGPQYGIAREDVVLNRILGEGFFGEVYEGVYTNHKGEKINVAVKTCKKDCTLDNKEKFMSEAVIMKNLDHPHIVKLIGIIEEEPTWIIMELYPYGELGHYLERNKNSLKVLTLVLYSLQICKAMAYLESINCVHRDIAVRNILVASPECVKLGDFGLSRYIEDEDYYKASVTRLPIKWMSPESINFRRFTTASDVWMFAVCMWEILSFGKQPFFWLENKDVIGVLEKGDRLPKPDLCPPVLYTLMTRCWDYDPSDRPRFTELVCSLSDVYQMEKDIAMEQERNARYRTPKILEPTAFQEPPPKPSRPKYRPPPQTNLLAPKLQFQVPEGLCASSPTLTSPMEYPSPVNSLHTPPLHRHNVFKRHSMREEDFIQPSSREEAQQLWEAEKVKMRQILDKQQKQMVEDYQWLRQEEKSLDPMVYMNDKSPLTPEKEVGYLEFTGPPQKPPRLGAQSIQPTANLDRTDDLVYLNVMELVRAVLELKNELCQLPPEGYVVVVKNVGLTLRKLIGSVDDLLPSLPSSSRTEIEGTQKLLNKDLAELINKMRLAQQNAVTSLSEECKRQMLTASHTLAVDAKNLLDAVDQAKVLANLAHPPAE

FAK, sequence (Q05397 whole entry): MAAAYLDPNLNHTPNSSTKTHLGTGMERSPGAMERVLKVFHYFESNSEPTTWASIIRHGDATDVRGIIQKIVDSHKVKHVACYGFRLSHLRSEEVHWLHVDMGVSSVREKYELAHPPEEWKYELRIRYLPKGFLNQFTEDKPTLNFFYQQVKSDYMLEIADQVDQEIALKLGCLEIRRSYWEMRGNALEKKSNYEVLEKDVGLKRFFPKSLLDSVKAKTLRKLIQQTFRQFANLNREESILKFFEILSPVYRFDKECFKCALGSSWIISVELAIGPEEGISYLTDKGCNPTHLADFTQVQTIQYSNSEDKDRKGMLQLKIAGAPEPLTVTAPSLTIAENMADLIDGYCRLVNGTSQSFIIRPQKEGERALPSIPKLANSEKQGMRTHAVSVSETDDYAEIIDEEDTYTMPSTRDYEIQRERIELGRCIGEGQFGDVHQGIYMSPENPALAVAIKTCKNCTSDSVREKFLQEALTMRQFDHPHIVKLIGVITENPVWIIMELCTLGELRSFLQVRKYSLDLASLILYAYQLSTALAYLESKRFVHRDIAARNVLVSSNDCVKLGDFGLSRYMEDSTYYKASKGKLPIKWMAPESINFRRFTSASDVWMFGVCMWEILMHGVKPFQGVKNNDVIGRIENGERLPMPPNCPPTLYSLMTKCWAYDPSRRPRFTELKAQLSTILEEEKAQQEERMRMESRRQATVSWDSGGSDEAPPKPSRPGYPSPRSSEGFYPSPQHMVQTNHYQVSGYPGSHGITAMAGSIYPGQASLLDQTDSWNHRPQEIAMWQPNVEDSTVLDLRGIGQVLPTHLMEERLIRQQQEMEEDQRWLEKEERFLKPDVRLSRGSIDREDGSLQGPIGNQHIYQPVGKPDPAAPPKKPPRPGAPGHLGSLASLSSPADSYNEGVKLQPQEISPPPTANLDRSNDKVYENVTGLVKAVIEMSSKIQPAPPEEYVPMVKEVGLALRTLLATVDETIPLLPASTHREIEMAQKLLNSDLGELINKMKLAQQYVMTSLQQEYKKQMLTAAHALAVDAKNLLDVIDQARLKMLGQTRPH

Turning to `COc1cc(N2CCOCC2)ccc1Nc1nc2c(c(Nc3ccccc3S(=O)(=O)NCC3CC3)n1)C1(CC1)CN2` [Example 140, N-(cyclopropylmethyl)-2-(2′-(2-methoxy-4-morpholinophenylamino)-6′,7′-dihydrospiro[cyclopropane-1,5′-pyrrolo[2,3-d]pyrimidine]-4′-ylamino)benzenesulfonamide], the IC50 on FAK and against PYK2 was below 20 nM throughout.

As for `COCCNS(=O)(=O)c1ccccc1Nc1nc(Nc2ccc(N3CCOCC3)cc2OC)nc2c1C1(CC1)CN2` [Example 141, 2-(2′-(2-methoxy-4-morpholinophenylamino)-6′,7′-dihydrospiro[cyclopropane-1,5′-pyrrolo[2,3-d]pyrimidine]-4′-ylamino)-N-(2-methoxyethyl)benzenesulfonamide], the IC50 against FAK and against PYK2 was below 20 nM in each case.

On to `COc1cc(N2CCOCC2)ccc1Nc1nc2c(c(Nc3ccccc3S(=O)(=O)NCCO)n1)C1(CC1)CN2` [Example 142, N-(2-hydroxyethyl)-2-(2′-(2-methoxy-4-morpholinophenylamino)-6′,7′-dihydrospiro[cyclopropane-1,5′-pyrrolo[2,3-d]pyrimidine]-4′-ylamino)benzenesulfonamide], for which the IC50 at FAK and at PYK2 was above 1000 nM each time.

Take `COc1cc(N2CCOCC2)ccc1Nc1nc2c(c(Nc3ccccc3S(=O)(=O)Nc3ccccc3)n1)C1(CC1)CN2` [Example 143, 2-(2′-(2-methoxy-4-morpholinophenylamino)-6′,7′-dihydrospiro[cyclopropane-1,5′-pyrrolo[2,3-d]pyrimidine]-4′-ylamino)-N-phenylbenzenesulfonamide]: the IC50 (usually the midpoint of a concentration-inhibition curve) against FAK is below 100 nM; against PYK2 it was below 200 nM.

For the compound `C=CCNS(=O)(=O)c1ccccc1Nc1nc(Nc2ccc(N3CCOCC3)cc2OC)nc2c1C1(CC1)CN2` [Example 144, N-allyl-2-(2′-(2-methoxy-4-morpholinophenylamino)-6′,7′-dihydrospiro[cyclopropane-1,5′-Pyrrolo[2,3-d]pyrimidine]-4′-ylamino)benzenesulfonamide], the IC50 at FAK and against PYK2 was below 20 nM throughout.

Regarding `COc1cc(N2CCOCC2)ccc1Nc1nc2c(c(Nc3ccccc3S(=O)(=O)NC3CCCC3)n1)C1(CC1)CN2` [Example 145, N-cyclopentyl-2-(2′-(2-methoxy-4-morpholinophenylamino)-6′,7′-dihydrospiro[cyclopropane-1,5′-pyrrolo[2,3-d]pyrimidine]-4′-ylamino)benzenesulfonamide], the IC50 against FAK and against PYK2 was below 100 nM in each case.

Consider `COc1cc(N2CCOCC2)ccc1Nc1nc2c(c(Nc3ccccc3S(=O)(=O)NC3CC3)n1)C1(CC1)CN2` [Example 146, N-cyclopropyl-2-(2′-(2-methoxy-4-morpholinophenylamino)-6′,7′-dihydrospiro[cyclopropane-1,5′-pyrrolo[2,3-d]pyrimidine]-4′-ylamino)benzenesulfonamide], for which the IC50 at FAK and against PYK2 was above 1000 nM each time.

As for `CCCNS(=O)(=O)c1ccccc1Nc1nc(Nc2ccc(N3CCOCC3)cc2OC)nc2c1C1(CC1)CN2` [Example 148, 2-(2′-(2-methoxy-4-morpholinophenylamino)-6′,7′-dihydrospiro[cyclopropane-1,5′-pyrrolo[2,3-d]pyrimidine]-4′-ylamino)-N-propylbenzenesulfonamide], the IC50 against FAK and against PYK2 was below 20 nM each time.

Regarding `COc1cc(N2CCOCC2)ccc1Nc1nc2c(c(Nc3ccccc3S(=O)(=O)NC3CCCCC3)n1)C1(CC1)CN2` [Example 149, N-cyclohexyl-2-(2′-(2-methoxy-4-morpholinophenylamino)-6′,7′-dihydrospiro[cyclopropane-1,5′-pyrrolo[2,3-d]pyrimidine]-4′-ylamino)benzenesulfonamide], the IC50 against FAK and at PYK2 was below 500 nM in each case.

Consider `COc1cc(N2CCOCC2)ccc1Nc1nc2c(c(Nc3ccccc3S(=O)(=O)NC3CCC3)n1)C1(CC1)CN2` [Example 150, N-cyclobutyl-2-(2′-(2-methoxy-4-morpholinophenylamino)-6′,7′-dihydrospiro[cyclopropane-1,5′-pyrrolo[2,3-d]pyrimidine]-4′-ylamino)benzenesulfonamide], for which the IC50 against FAK and at PYK2 was below 20 nM throughout.

Turning to `COc1cc(N2CCOCC2)ccc1Nc1nc2c(c(Nc3ccccc3S(=O)(=O)N(C)C)n1)C1(CC1)CN2` [Example 151, 2-(2′-(2-methoxy-4-morpholinophenylamino)-6′,7′-dihydrospiro[cyclopropane-1,5′-pyrrolo[2,3-d]pyrimidine]-4′-ylamino)-N,N-dimethylbenzenesulfonamide], the IC50 against FAK and against PYK2 was below 20 nM in each case.

Regarding `CNC(=O)c1ccccc1Nc1nc(Nc2ccc(N3CCOCC3)cc2OC)nc2c1C1(CC1)CN2` [Example 152, 2-(2′-(2-methoxy-4-morpholinophenylamino)-6′,7′-dihydrospiro[cyclopropane-1,5′-pyrrolo[2,3-d]pyrimidine]-4′-ylamino)-N-methylbenzamide], the IC50 is below 50 nM against FAK and below 20 nM against PYK2.

Turning to `COc1cc(N2CCOCC2)ccc1Nc1nc2c(c(Nc3ccc(F)c(F)c3)n1)C1(CC1)CN2` [Example 153, N^4′-(3,4-difluorophenyl)-N^2′-(2-methoxy-4-morpholinophenyl)-6′,7′-dihydrospiro[cyclopropane-1,5′-pyrrolo[2,3-d]pyrimidine]-2′,4′-diamine], the IC50 at FAK is below 200 nM; against PYK2, below 500 nM.

Turning to `COc1cc(N2CCOCC2)ccc1Nc1nc2c(c(Nc3cccc(C)n3)n1)C1(CC1)CN2` [Example 154, N^2′-(2-methoxy-4-morpholinophenyl)-N^4′-(6-methylpyridin-2-yl)-6′,7′-dihydrospiro[cyclopropane-1,5′-pyrrolo[2,3-d]pyrimidine]-2′,4′-diamine], the results for the IC50 on FAK and on PYK2 were below 50 nM and below 100 nM, respectively.

On to `COc1cc(N2CCOCC2)ccc1Nc1nc2c(c(Nc3ccccc3NC(C)=O)n1)C1(CC1)CN2` [Example 155, N-(2-(2′-(2-methoxy-4-morpholinophenylamino)-6′,7′-dihydrospiro[cyclopropane-1,5′-pyrrolo[2,3-d]pyrimidine]-4′-ylamino)phenyl)acetamide], for which the IC50 at FAK and against PYK2 was below 50 nM each time.

With `COc1cc(N2CCOCC2)ccc1Nc1nc2c(c(Nc3ccccc3N(C)S(C)(=O)=O)n1)C1(CC1)CN2` [Example 156, N-(2-(2′-(2-methoxy-4-morpholinophenylamino)-6′,7′-dihydrospiro[cyclopropane-1,5′-pyrrolo[2,3-d]pyrimidine]-4′-ylamino)phenyl)-N-methylmethanesulfonamide], the IC50 at FAK and at PYK2 was below 20 nM throughout.

`CNS(=O)(=O)c1ccccc1Nc1nc(Nc2cc(OC)c(OC)c(OC)c2)nc2c1C1(CC1)CN2` [Example 157, N-methyl-2-(2′-(3,4,5-trimethoxyphenylamino)-6′,7′-dihydrospiro[cyclopropane-1,5′-pyrrolo[2,3-d]pyrimidine]-4′-ylamino)benzenesulfonamide]: the IC50 at FAK and against PYK2 was below 20 nM throughout.

As to `CNC(=O)c1ccccc1Nc1nc(Nc2ccc(N3CCOCC3)cc2)nc2c1CCN2` [Example 158, N-methyl-2-(2-(4-morpholinophenylamino)-6,7-dihydro-5H-pyrrolo[2,3-d]pyrimidin-4-ylamino)benzamide], the half-maximal inhibitory concentration (IC50) at FAK and at PYK2 was below 100 nM each time.

`CNC(=O)c1ccccc1Nc1nc(Nc2ccccc2OC)nc2c1CCN2` [Example 159, 2-(2-(2-methoxyphenylamino)-6,7-dihydro-5H-pyrrolo[2,3-d]pyrimidin-4-ylamino)-N-methylbenzamide]: the IC50 on FAK and against PYK2 was below 200 nM each time.

As for `COc1cc(N2CCOCC2)ccc1Nc1nc2c(c(Nc3ccccc3C(=O)O)n1)CCN2` [Example 160, 2-(2-(2-methoxy-4-morpholinophenylamino)-6,7-dihydro-5H-pyrrolo[2,3-d]pyrimidin-4-ylamino)benzoic acid], the figures for the IC50 on FAK and on PYK2 were below 500 nM and below 1000 nM, respectively.

For `COc1cc(N2CCOCC2)ccc1Nc1nc2c(c(Nc3ccccc3C=O)n1)CCN2` [Example 161, 2-(2-(2-methoxy-4-morpholinophenylamino)-6,7-dihydro-5H-pyrrolo[2,3-d]pyrimidin-4-ylamino)benzaldehyde], the IC50 against FAK and against PYK2 was below 1000 nM each time.

`COc1cc(N2CCC(N3CCNCC3)CC2)ccc1Nc1nc2c(c(Nc3ccccc3P(C)(C)=O)n1)CCN2` [Example 163, N^4-(2-(dimethylphosphoryl)phenyl)-N^2-(2-methoxy-4-(4-(piperazin-1-yl)piperidin-1-yl)phenyl)-6,7-dihydro-5H-pyrrolo[2,3-d]pyrimidine-2,4-diamine]: the IC50 at FAK was below 100 nM; at PYK2, below 50 nM.

Values taken from patent publication US9428508B2, “2,4-diamino-6,7-dihydro-5H-pyrrolo[2,3]pyrimidine derivatives as FAK/Pyk2 inhibitors” (Centaurus BioPharma Co., Ltd., priority 2011, dated 2016).
